# Experimental data reported in patent publication US9125913B2, “Bcl-2-selective apoptosis-inducing agents for the treatment of cancer and immune diseases” (AbbVie Inc., priority 2008, dated 2015).
# Test system: GST-Bcl-2
# Assay: TR-FRET binding assay, Bcl-2
# Details: TR-FRET Ki values
# Method in brief: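 Ki values come from Wang's competitive-binding equation applied to TR-FRET signal (excitation 340/35 nm; emission 520/525 nm F-Bak peptide, 495/510 nm Tb antibody). Protein, probe and antibody incubated with compound 3 h at room temperature; dilution series began at 50 μM as 2× stock in 10% DMSO.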
row,Compound,Binding selectivity ratio (Bcl-XL Ki/Bcl-2 Ki)
1,"CN(C)CCCNc1ccc(S(=O)(=O)NC(=O)c2ccc(N3CCN(Cc4ccccc4-c4ccc(Cl)cc4)CC3)cc2Oc2ccc3cc[nH]c3c2)cc1[N+](=O)[O-] [Example 47, 4-{4-[(4′-chloro-1,1′-biphenyl-2-yl)methyl]piperazin-1-yl}-N-[(4-{[3-(dimethylamino)propyl]amino}-3-nitrophenyl)sulfonyl]-2-(1H-indol-6-yloxy)benzamide]",15.7
2,"CC1(C)CCC(CN2CCN(c3ccc(C(=O)NS(=O)(=O)c4ccc(N[C@@H]5CCN(Cc6ccccc6)C[C@@H]5O)c([N+](=O)[O-])c4)c(Oc4ccc5[nH]ccc5c4)c3)CC2)=C(c2ccc(Cl)cc2)C1 [EXAMPLE 187, N-[(4-{[(3S,4R)-1-benzyl-3-hydroxypiperidin-4-yl]amino}-3-nitrophenyl)sulfonyl]-4-(4-{[2-(4-chlorophenyl)-4,4-dimethylcyclohex-1-en-1-yl]methyl}piperazin-1-yl)-2-(1H-indol-5-yloxy)benzamide]",>2003.9
3,"CC(c1ccccc1-c1ccc(Cl)cc1)N1CCN(c2ccc(C(=O)NS(=O)(=O)c3ccc(NC4CCN(C)CC4)c([N+](=O)[O-])c3)c(Oc3cccc4[nH]ccc34)c2)CC1 (centres unmarked) [EXAMPLE 206, 4-{4-[1-(4′-chloro-1,1′-biphenyl-2-yl)ethyl]piperazin-1-yl}-2-(1H-indol-4-yloxy)-N-({4-[(1-methylpiperidin-4-yl)amino]-3-nitrophenyl}sulfonyl)benzamide]",>7916.4
4,"CN(C)CC[C@H](Nc1ccc(S(=O)(=O)NC(=O)c2ccc(N3CCN(Cc4ccccc4-c4ccc(Cl)cc4)CC3)cc2Oc2ccccc2)cc1[N+](=O)[O-])c1cccs1 [Example 161, 4-{4-[(4′-chloro-1,1′-biphenyl-2-yl)methyl]piperazin-1-yl}-N-[(4-{[(1S)-3-(dimethylamino)-1-thien-2-ylpropyl]amino}-3-nitrophenyl)sulfonyl]-2-phenoxybenzamide]",>386.0
5,"O=C(NS(=O)(=O)c1ccc(NCCCN2CCOCC2)c([N+](=O)[O-])c1)c1ccc(N2CCN(Cc3ccccc3-c3ccc(Cl)cc3)CC2)cc1Oc1ccc2[nH]ccc2c1 [Example 59, 4-{4-[(4′-chloro-1,1′-biphenyl-2-yl)methyl]piperazin-1-yl}-2-(1H-indol-5-yloxy)-N-({4-[(3-morpholin-4-ylpropyl)amino]-3-nitrophenyl}sulfonyl)benzamide]",1867.6
6,"O=C(NS(=O)(=O)c1ccc(NCC2CCOCC2)c([N+](=O)[O-])c1)c1ccc(N2CCN(Cc3ccccc3-c3ccc(Cl)cc3)CC2)cc1Oc1cccc2ccccc12 [Example 34, 4-{4-[(4′-chloro-1,1′-biphenyl-2-yl)methyl]piperazin-1-yl}-2-(1-naphthyloxy)-N-({3-nitro-4-[(tetrahydro-2H-pyran-4-ylmethyl)amino]phenyl}sulfonyl)benzamide]",44.3
7,"CC1(C)CCC(CN2CCN(c3ccc(C(=O)NS(=O)(=O)c4ccc(OCC5CCOC(C)(C)C5)c([N+](=O)[O-])c4)c(Oc4ccc5[nH]ccc5c4)c3)CC2)=C(c2ccc(Cl)cc2)C1 (centres unmarked) [EXAMPLE 384, 4-(4-{[2-(4-chlorophenyl)-4,4-dimethylcyclohex-1-en-1-yl]methyl}piperazin-1-yl)-N-({4-[(2,2-dimethyltetrahydro-2H-pyran-4-yl)methoxy]-3-nitrophenyl}sulfonyl)-2-(1H-indol-5-yloxy)benzamide]",>8684.2
8,"CC1(C)CCC(CN2CCN(c3ccc(C(=O)NS(=O)(=O)c4cnc(NC5CCN(C6CC6)CC5)c(Cl)c4)c(Oc4cccc5[nH]cnc45)c3)CC2)=C(c2ccc(Cl)cc2)C1 [EXAMPLE 449, 2-(1H-benzimidazol-4-yloxy)-N-({5-chloro-6-[(1-cyclopropylpiperidin-4-yl)amino]pyridin-3-yl}sulfonyl)-4-(4-{[2-(4-chlorophenyl)-4,4-dimethylcyclohex-1-en-1-yl]methyl}piperazin-1-yl)benzamide]",74.4
